Data as given in patent US11839613B2, “Pyrimidine derivatives as PGE2 receptor modulators” (IDORSIA PHARMACEUTICALS LTD, priority 2017, dated 2023).

Key:
EP4 = EP4 (Homo sapiens (Human), UniProt P35408); experiment: hEP4 cAMP assay (BT549 breast cancer cells, HTRF cAMP); assay type: cell-based; settings: antagonistic activity, PGE2 6 nM
Description: (§1) Human tumor cell lines expressing endogenously either EP4 or EP2 are used and cAMP accumulation in cells upon PGE2 stimulation is monitored. SF295 glioblastoma cells express high endogenous EP2 and no EP4, whereas BT549 breast cancer cells, express high endogenous EP4 levels and very low EP2 levels.
(§2) As a detection method for cAMP the HTRF (homogeneous time resolved fluorescence) Cisbio kit (HTRF cAMP dynamic 2 kit 20'000 tests Cisbio Cat. #62AM4PEC) was used, which is based on a competitive immunoassay using a Cryptate-labeled anti-cAMP antibody and d2-labeled cAMP. Native cAMP produced by cells or unlabeled cAMP (for the standard curve) compete with exogenously added d2-labeled cAMP (acceptor) for binding to monoclonal anti-cAMP-Eu3+Cryptate (donor). A FRET signal (Fluorescence Resonance Energy Transfer) is obtained only if the labeled anti-cAMP antibody binds the d2 labelled cAMP, thus the specific signal (i.e. energy transfer) is inversely proportional to the concentration of cAMP in the standard or sample.
(§3) Cells are counted washed and resuspended in assay buffer (AB; HBSS, 20 mM HEPES, 0.2% BSA; 2 mM IBMX).
Plate is pre-incubated 45 minutes at RT. Subsequently, 2.5 microliters of PGE2 (final conc. 6 nM) are transferred into the assay plate. Plate is incubated 30 minutes at RT.

EP2 = EP2 (Homo sapiens (Human), UniProt P43116); experiment: hEP2 cAMP assay (SF295 glioblastoma cells, HTRF cAMP); assay type: cell-based; settings: antagonistic activity
Sequence of EP2 (P43116 whole entry): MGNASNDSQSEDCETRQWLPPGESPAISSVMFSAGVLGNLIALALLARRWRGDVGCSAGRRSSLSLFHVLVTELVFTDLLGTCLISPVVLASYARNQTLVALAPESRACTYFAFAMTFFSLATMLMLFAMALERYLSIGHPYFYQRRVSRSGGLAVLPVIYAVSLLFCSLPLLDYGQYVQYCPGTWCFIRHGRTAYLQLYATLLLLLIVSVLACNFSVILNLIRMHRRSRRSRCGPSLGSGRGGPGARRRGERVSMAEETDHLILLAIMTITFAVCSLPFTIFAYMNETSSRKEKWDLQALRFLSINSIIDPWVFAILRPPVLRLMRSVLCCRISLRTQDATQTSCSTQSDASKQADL
Description: as §1, §2, §3
Plate is pre-incubated 45 minutes at RT. […] Plate is incubated 30 minutes at RT.

PTGER2 (EP2) = PTGER2 (EP2) (Homo sapiens (Human), UniProt P43116); experiment: hEP2 b-arrestin assay (PathHunter HEK 293 PTGER2 b-arrestin cells); assay type: cell-based; settings: antagonistic activity, beta-arrestin assay; read-out: hEP2 b-arr IC50
Sequence of PTGER2 (EP2) (P43116 whole entry): as above
Procedure: Plate is pre-incubated 15 minutes at 37° C. Then five microliters of PGE2 (final conc. 5 μM) are transferred into the assay plate. Plate is incubated 120 minutes at 37° C.
(each concentration is measured in duplicate)

PTGER4 (EP4) = PTGER4 (EP4) (Homo sapiens (Human), UniProt P35408); experiment: cell-based
Sequence of PTGER4 (EP4) (P35408 whole entry): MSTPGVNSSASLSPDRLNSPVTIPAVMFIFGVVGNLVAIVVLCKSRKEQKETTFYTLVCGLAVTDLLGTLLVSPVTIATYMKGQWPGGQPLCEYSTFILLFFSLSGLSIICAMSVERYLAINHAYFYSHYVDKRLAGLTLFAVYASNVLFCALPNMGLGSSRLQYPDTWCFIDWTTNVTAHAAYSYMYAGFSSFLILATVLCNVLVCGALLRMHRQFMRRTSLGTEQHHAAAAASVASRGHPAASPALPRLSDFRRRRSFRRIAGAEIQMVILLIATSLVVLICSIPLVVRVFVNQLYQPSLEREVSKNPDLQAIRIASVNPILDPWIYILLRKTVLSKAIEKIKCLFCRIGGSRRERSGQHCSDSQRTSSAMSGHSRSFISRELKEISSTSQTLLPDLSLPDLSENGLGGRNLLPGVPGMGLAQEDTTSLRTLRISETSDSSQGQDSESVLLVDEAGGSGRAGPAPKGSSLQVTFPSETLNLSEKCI

Sequence of EP4 (P35408 whole entry): as above

Row | Structure (SMILES) | IC50 (EP4) | IC50 (EP2) | IC50 (PTGER2 (EP2)) | IC50 (EP4; BT549 cells) | IC50 (PTGER4 (EP4))
1 | Cc1c(CCNc2cc(-c3cc(OCCO)c(C(=O)O)s3)ncn2)ccc2ccccc12 [Ex 48] | 0.022 µM | 0.066 µM |  |  | 
2 | CCOc1cc(-c2cc(NCCc3cc4ccccc4cc3OC(F)F)ncn2)ccc1C(=O)O [Ex 211] | 0.253 µM | 0.571 µM |  |  | 
3 | COc1cc2c(cc1CCNc1cc(-c3ccc(C(=O)O)c(OC4CCC4)c3)ncn1)OCO2 [Ex 213, 2-Cyclobutoxy-4-{6-[2-(6-methoxy-benzo[1,3]dioxol-5-yl)-ethylamino]-pyrimidin-4-yl}-benzoic acid] | 0.256 µM | 0.046 µM | 0.059 µM |  | 
4 | CCOc1cc(-c2cc(NCCc3cc4c(cc3OC(F)F)OCO4)ncn2)ccc1OCC(=O)O [Ex 217] | 0.272 µM | 0.321 µM | 0.238 µM |  | 
5 | CCOc1cc(-c2cc(NCCc3c(OC)cc4occc4c3C)ncn2)ccc1C(=O)O [Ex 221, 2-Ethoxy-4-{6-[2-(6-methoxy-4-methyl-benzofuran-5-yl)-ethylamino]-pyrimidin-4-yl}-benzoic acid] | 0.285 µM | 0.002 µM | 0.008 µM |  | 
6 | CCOc1cc(-c2cc(NCCc3ccc4cc[nH]c4c3)ncn2)ccc1OC(C)C(=O)O (stereo not shown) [Ex 223] | 0.288 µM | 0.199 µM | 0.329 µM |  | 
7 | O=C(O)c1ccc(-c2cc(NCCc3c(F)cc4ncccc4c3F)ncn2)cc1OC1CCC1 [Ex 228] | 0.3 µM | 0.194 µM | 0.392 µM |  | 
8 | Cc1c(CCNc2cc(-c3ccc(C(=O)O)c(OCCO)c3)ncn2)ccc2ccccc12 [Ex 234] | 0.325 µM | 0.113 µM |  |  | 
9 | O=C(O)c1ccc(-c2cc(NCCc3ccc4c(c3)OCCO4)ncn2)cc1OC1CCC1 [Ex 244] | 0.356 µM | 0.552 µM |  |  | 
10 | O=C(O)c1ccc(-c2cc(NCCc3cc(Cl)c4c(c3)OCCO4)ncn2)cc1OC1CCC1 [Ex 246] | 0.364 µM | 0.534 µM |  |  | 
11 | CCOc1cc(-c2cc(NCCc3cc4ccccc4cc3Cl)ncn2)ccc1OCC(=O)O [Ex 247] | 0.365 µM | 0.797 µM |  |  | 
12 | CCOc1cc(-c2cc(NCCc3ccc4cc[nH]c4c3)ncn2)ccc1C(=O)O [Ex 259, 2-Ethoxy-4-{6-[2-(1H-indol-6-yl)-ethylamino]-pyrimidin-4-yl}-benzoic acid] | 0.394 µM | 0.302 µM |  |  | 
13 | CCOc1cc(-c2cc(NCCc3ccc4ccccc4c3Cl)ncn2)ccc1C(=O)O [Ex 260] | 0.404 µM | 0.88 µM |  |  | 
14 | Cc1c(Cl)c(CCNc2cc(-c3ccc(C(=O)O)c(OC4CCC4)c3)ncn2)cc2cccnc12 [Ex 263] | 0.425 µM | 0.524 µM |  |  | 
15 | CC(C)Oc1cc2ccccc2cc1CCNc1cc(-c2ccc(C(=O)O)c(OC3CCC3)c2)ncn1 [Ex 264] | 0.425 µM | 11.8 µM |  |  | 
16 | O=C(O)c1ccc(-c2cc(NCCc3ccc4c(c3)OCCC4)ncn2)cc1OC1CCC1 [Ex 265, 4-[6-(2-Chroman-7-yl-ethylamino)-pyrimidin-4-yl]-2-cyclobutoxy-benzoic acid] | 0.428 µM | 11.4 µM |  |  | 
17 | CCOc1cc(-c2cc(NCCc3ccc4cc[nH]c4c3)ncn2)ccc1CC(=O)O [Ex 271] | 0.439 µM | 0.638 µM |  |  | 
18 | COc1cc2cc(F)oc2cc1CCNc1cc(-c2ccc(C(=O)O)c(OC3CCC3)c2)ncn1 [Ex 280] | 0.491 µM | 0.514 µM |  |  | 
19 | CCOc1cc(-c2cc(NCCc3cc4ccccc4cc3OC)ncn2)cc(OC)c1C(=O)O [Ex 282] | 0.498 µM | 0.296 µM |  |  | 
20 | Cc1c(CCNc2cc(-c3ccc(-c4nc(O)no4)cc3)ncn2)ccc2ccccc12 [Ex 302] | 0.52 µM | 0.384 µM |  |  | 
21 | CCOc1cc(-c2cc(NCCc3c(F)cc4ncccc4c3F)ncn2)ccc1C(=O)O [Ex 304] | 0.652 µM | 0.408 µM |  |  | 
22 | Oc1c(F)cc(-c2cc(NCCc3ccc4cc[nH]c4c3)ncn2)cc1F [Ex 307, 2,6-Difluoro-4-{6-[2-(1H-indol-6-yl)-ethylamino]-pyrimidin-4-yl}-phenol] | 0.658 µM | 0.677 µM |  |  | 
23 | CCOc1cc(-c2cc(NCCc3cc4c(cc3OC)OCCO4)ncn2)ccc1OC(C)(C)C(=O)O [Ex 313] | 0.691 µM | 0.273 µM |  |  | 
24 | CCOc1cc(-c2cc(NCCc3ccc4sccc4c3)ncn2)ccc1OC(C)(C)C(=O)O [Ex 321] | 0.772 µM | 0.562 µM |  |  | 
25 | O=C(O)c1ccc(-c2cc(NCCc3ccc4[nH]ccc4c3)ncn2)cc1OC1CCC1 [Ex 322, 2-Cyclobutoxy-4-{6-[2-(1H-indol-5-yl)-ethylamino]-pyrimidin-4-yl}-benzoic acid] | 0.814 µM | 0.809 µM |  |  | 
26 | CCOc1cc(-c2cc(NCCc3cc(Cl)c4c(c3)OCCO4)ncn2)ccc1C(=O)O [Ex 324] | 0.858 µM | 0.899 µM |  |  | 
27 | O=C(O)c1coc2cc(-c3cc(NCCc4ccc5sccc5c4)ncn3)ccc12 [Example 467, 6-[6-(2-Benzo[b]thiophen-5-yl-ethylamino)-pyrimidin-4-yl]-benzofuran-3-carboxylic acid] |  |  | 0.417 µM | 0.155 µM | 0.187 µM

Other lines, results leading:

Row | IC50 (EP4) | IC50 (EP2) | IC50 (PTGER2 (EP2)) | IC50 (EP4; BT549 cells) | IC50 (PTGER4 (EP4)) | Structure (SMILES)
28 | 0.076 µM | 0.95 µM |  |  |  | CCOc1cc(-c2cc(NCCc3c(F)cc4ccccc4c3F)ncn2)ccc1CC(=O)O [Ex 107]
29 | 0.252 µM | 0.794 µM |  |  |  | CCOc1cc(-c2cc(NCCc3cc4c(cc3OC)N(C)C(=O)CC4)ncn2)sc1C(=O)O [Ex 210]
30 | 0.283 µM | 0.141 µM | 0.113 µM |  |  | CCOc1cc(-c2cc(NCCc3ccc4ccccc4c3C)ncn2)ccc1-c1noc(O)n1 [Ex 220]
31 | 0.287 µM | 0.279 µM |  |  |  | CCSc1cc(-c2cc(NCCc3ccc4sccc4c3)ncn2)ccc1C(=O)O [Ex 222]
32 | 0.289 µM | 0.923 µM |  |  |  | CCOc1cc(-c2cc(NCCc3ccc4[nH]ccc4c3)ncn2)ccc1OCC(=O)O [Ex 225, (2-Ethoxy-4-{6-[2-(1H-indol-5-yl)-ethylamino]-pyrimidin-4-yl}-phenoxy)-acetic acid]
33 | 0.291 µM | 0.25 µM | 0.151 µM |  |  | c1nc(NCCc2ccc3cc[nH]c3c2)cc(-c2ccc3[nH]ccc3c2)n1 [Ex 226, [2-(1H-Indol-6-yl)-ethyl]-[6-(1H-indol-5-yl)-pyrimidin-4-yl]-amine]
34 | 0.293 µM | 0.088 µM | 0.142 µM |  |  | CCOc1cc(-c2cc(NCCc3cc4ccoc4cc3F)ncn2)ccc1C(=O)O [Ex 227, 2-Ethoxy-4-{6-[2-(6-fluoro-benzofuran-5-yl)-ethylamino]-pyrimidin-4-yl}-benzoic acid]
35 | 0.325 µM | 0.772 µM |  |  |  | Cc1c(CCNc2cc(-c3ccc(C(=O)O)c(OC4CCC4)c3)ncn2)ccc2cccnc12 [Ex 235]
36 | 0.358 µM | 0.304 µM |  |  |  | CCOc1cc2ccccc2cc1CCNc1cc(-c2ccc(OC(C)(C)C(=O)O)c(OCC)c2)ncn1 [Ex 245]
37 | 0.39 µM | 3.61 µM |  |  |  | CCOc1cc(-c2cc(NCCc3cc4ccccc4cc3OC(C)C)ncn2)ccc1CC(=O)O [Ex 258]
38 | 0.431 µM | 0.306 µM |  |  |  | c1nc(NCCc2ccc3cc[nH]c3c2)cc(-c2ccc3cc[nH]c3c2)n1 [Ex 267, [2-(1H-Indol-6-yl)-ethyl]-[6-(1H-indol-6-yl)-pyrimidin-4-yl]-amine]
39 | 0.502 µM | 0.618 µM |  |  |  | COc1cc(-c2cc(NCCc3cc4cccnc4cc3F)ncn2)sc1C1(O)COC1 [Ex 283]
40 | 0.561 µM | 0.786 µM |  |  |  | NC(=O)c1ccc(-c2cc(NCCc3ccc4cc[nH]c4c3)ncn2)s1 [Ex 294, 5-{6-[2-(1H-Indol-6-yl)-ethylamino]-pyrimidin-4-yl}-thiophene-2-carboxylic acid amide]
41 | 0.613 µM | 0.716 µM |  |  |  | CCOc1cc(-c2cc(NCCc3cc4c(cnn4C)cc3OC)ncn2)ccc1OCC(=O)O [Ex 298]
42 | 0.624 µM | 0.312 µM |  |  |  | COc1cc2ccccc2cc1CCNc1cc(-c2cc(OC)c(C(=O)O)c(OC)c2)ncn1 [Ex 300]
43 | 0.626 µM | 0.425 µM |  |  |  | CCOc1cc(-c2cc(NCCc3cc4cccnc4c(F)c3Cl)ncn2)ccc1OCC(=O)O [Ex 301]
44 | 0.677 µM | > 27.7 µM |  |  |  | CCOc1cc(-c2cc(NCCc3ccc4c(c3)OCCC4)ncn2)ccc1C(=O)O [Ex 309, 4-[6-(2-Chroman-7-yl-ethylamino)-pyrimidin-4-yl]-2-ethoxy-benzoic acid]
45 | 0.729 µM | 0.792 µM |  |  |  | CCOc1cc(-c2cc(NCCc3ccc4ccccc4c3C)ncn2)sc1CC(=O)OC [Ex 316]
46 | 0.766 µM | 0.44 µM |  |  |  | COc1cc(-c2cc(NCCc3ccc4sccc4c3)ncn2)cc(OC)c1C(=O)O [Ex 320, 4-[6-(2-Benzo[b]thiophen-5-yl-ethylamino)-pyrimidin-4-yl]-2,6-dimethoxy-benzoic acid]
47 | 0.828 µM | 2.34 µM |  |  |  | NC(=O)c1ccc(-c2cc(NCCc3c(F)cc4ncccc4c3F)ncn2)s1 [Example 356, 5-{6-[2-(5,7-Difluoro-quinolin-6-yl)-ethylamino]-pyrimidin-4-yl}-thiophene-2-carboxylic acid amide]
